# Measurements: patent US8163909B2, “Substituted hydroxyethyl amine compounds as beta-secretase modulators and methods of use” (Amgen Inc., priority 2007, dated 2012)
# Like-named read-outs stand apart in the source and are kept apart here.
# Assays:
# Abeta peptide = assay: In vivo inhibition of beta-secretase (reduction of Abeta peptide in brain and cerebrospinal fluid); parameters: species or system rat; conditions: Rattus norvegicus, po, 4 h, orally administered at 30 mg/kg dose, measured after 4 hours;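 note: abeta peptide quantified by sandwich ELISA with electrochemiluminescence readout in rat brain supernatant or CSF, relative to vehicle-dosed control animals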
# [1] = molecular target: Beta Secretase enzyme (BACE) (Homo sapiens, UniProt P56817); assay: In vitro enzymatic BACE FRET (fluorescence resonance energy transfer) assay; type: biochemical;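 note: fluorescence read after 1 h with 50 nM quenched peptide substrate spanning the BACE cleavage site, in pH 4.2 acetate buffer containing 10% DMSO and nonionic detergent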
# Chain of Beta Secretase enzyme (BACE) (P56817 46-501): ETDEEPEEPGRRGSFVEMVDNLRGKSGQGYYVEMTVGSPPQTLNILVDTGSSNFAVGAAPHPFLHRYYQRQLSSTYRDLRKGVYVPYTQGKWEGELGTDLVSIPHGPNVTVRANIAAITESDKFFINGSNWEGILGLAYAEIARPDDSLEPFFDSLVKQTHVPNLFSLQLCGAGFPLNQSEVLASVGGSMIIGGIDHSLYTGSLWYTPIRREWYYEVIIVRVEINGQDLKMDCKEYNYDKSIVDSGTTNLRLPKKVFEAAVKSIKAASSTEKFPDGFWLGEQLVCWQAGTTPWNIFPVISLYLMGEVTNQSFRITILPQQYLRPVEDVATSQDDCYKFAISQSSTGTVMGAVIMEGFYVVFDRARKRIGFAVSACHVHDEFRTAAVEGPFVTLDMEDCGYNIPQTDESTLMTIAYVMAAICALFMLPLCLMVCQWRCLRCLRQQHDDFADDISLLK
# [2] = test system: Aβ40 in conditioned medium of cells stably expressing Amyloid Precursor Protein (APP); assay: In vitro BACE cell-based assay (Aβ40 in conditioned medium, sandwich ELISA); conditions: Homo sapiens;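 note: compounds added as a dilution series, secreted peptide quantified by europium time-resolved fluorescence readout, potency fitted from percent of control versus compound concentration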
# [3] = Microsomal stability assay, rat liver microsomes;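 note: rat liver microsomes (0.25 mg/mL) with about 1 µM compound plus 1 mM NADPH, pH 7.4, 37 °C for 30 min, parent left measured by LC-MS/MS against 0 min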
# CYP2D6 = CYP2D6 (Homo sapiens, UniProt P10635); assay: CYP2D6 inhibition assay (bufuralol, pooled human liver microsomes)
# Chain of CYP2D6 (P10635 whole entry): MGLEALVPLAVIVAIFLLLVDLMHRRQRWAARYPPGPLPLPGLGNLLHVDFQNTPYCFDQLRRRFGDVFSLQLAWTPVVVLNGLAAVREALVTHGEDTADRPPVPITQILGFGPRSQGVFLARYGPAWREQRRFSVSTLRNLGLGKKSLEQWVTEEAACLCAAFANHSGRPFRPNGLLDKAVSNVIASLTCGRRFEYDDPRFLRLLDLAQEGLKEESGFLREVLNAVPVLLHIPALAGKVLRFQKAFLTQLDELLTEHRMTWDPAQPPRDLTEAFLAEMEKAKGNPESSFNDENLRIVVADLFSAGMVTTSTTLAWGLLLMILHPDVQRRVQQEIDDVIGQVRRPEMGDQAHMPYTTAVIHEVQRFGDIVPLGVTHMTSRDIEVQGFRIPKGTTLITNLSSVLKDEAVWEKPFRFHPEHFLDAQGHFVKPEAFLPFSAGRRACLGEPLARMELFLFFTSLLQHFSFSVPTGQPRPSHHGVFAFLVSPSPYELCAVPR
# CYP3A4 (CYP3A) = CYP3A4 (CYP3A) (Homo sapiens, UniProt P08684); assay: in vitro; conditions: microsomes, pH 7.4;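 note: inhibition of CYP3A-mediated 1-hydroxymidazolam formation after 10 min incubation with NADPH, quantified by HPLC MS relative to metabolite produced without test compound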
# Chain of CYP3A4 (CYP3A) (P08684 2-503): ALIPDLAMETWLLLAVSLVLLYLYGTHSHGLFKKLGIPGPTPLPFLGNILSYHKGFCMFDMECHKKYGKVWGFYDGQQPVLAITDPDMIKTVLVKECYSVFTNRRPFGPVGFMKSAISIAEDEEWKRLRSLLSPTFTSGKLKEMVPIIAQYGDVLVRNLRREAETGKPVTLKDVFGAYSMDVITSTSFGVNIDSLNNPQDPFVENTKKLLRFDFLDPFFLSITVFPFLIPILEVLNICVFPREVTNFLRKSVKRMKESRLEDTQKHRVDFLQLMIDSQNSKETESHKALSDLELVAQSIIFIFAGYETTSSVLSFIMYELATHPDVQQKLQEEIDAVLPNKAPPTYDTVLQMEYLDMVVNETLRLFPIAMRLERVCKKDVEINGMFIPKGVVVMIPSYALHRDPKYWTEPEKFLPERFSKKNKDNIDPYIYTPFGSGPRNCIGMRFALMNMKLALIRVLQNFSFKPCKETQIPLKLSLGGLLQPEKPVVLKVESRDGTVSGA
# [4] = Microsomal stability assay, human liver microsomes;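 note: pooled human liver microsomes at 0.25 mg/mL with 1 µM compound and NADPH at 37 °C, pH 7.4, for 30 min, unchanged parent quantified by LC-MS/MS against the 0 min sample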
# [5] = rat brain, read-out: percent reduction of abeta peptide in the brain of the rat
# [6] = read-out: BACE1 FRET assay (IC50)
# [7] = HEK293, HEK cells, read-out: HEK cell assay (IC50)
# [8] = 2D6 IC50 (uM), CYP2D6 inhibition
# [9] = BACE enzyme assay IC50, read-out: BACE1 FRET assay
# [10] = HEK293, HEK cell-based assay IC50, read-out: HEK cell assay
# [11] = 2D6 IC50 (uM), CYP enzyme inhibition
# [12] = BACE enzyme assay, IC50's in uM, read-out: BACE1 FRET assay
# [13] = HEK293, HEK cell-based assay, IC50's in uM, read-out: HEK cell assay
# [14] = 2D6 IC50, CYP enzyme inhibition
# [15] = BACE enzyme assay, read-out: BACE1 FRET assay
# [16] = HEK293, HEK cells, read-out: HEK cell assay
Structure (SMILES),RLM ([3]; rat liver microsomes) [µL/min/mg],IC50 (CYP3A4 (CYP3A)) [nM],HLM ([4]; human liver microsomes) [µL/min/mg],RLM ([3]; rat liver microsomal data) [µL/min/mg],IC50 (CYP2D6; [11]) [µM],HLM ([4]; human liver microsomal data) [µL/min/mg],other results
"COCC(=O)N[C@@H](Cc1ccc(F)c(-c2nccs2)c1)[C@H](O)CN[C@H]1CC2(CCC2)Oc2ncc(CC(C)(C)C)cc21 [Example 650, N-((1S,2R)-3-(((4′S)-6′-(2,2-dimethylpropyl)-3′,4′-dihydrospiro[cyclobutane-1,2′-pyrano[2,3-b]pyridin]-4′-yl)amino)-1-(4-fluoro-3-(1,3-thiazol-2-yl)benzyl)-2-hydroxypropyl)-2-methoxyacetamide]",,,,,,,inhibition in vivo at 30 mg/kg (Abeta peptide; [5]): 5 to 80%
CC(C)Cc1cnc2c(c1)[C@@H](NC[C@@H](O)[C@H](Cc1ccc3c(c1)OCO3)NC(=O)[C@@H](C)F)CC1(CCC1)O2 [Example 600],,,,,,,"inhibition in vivo at 30 mg/kg (Abeta peptide; [5]): 5 to 80%; inhibition in vivo at 30 mg/kg (Abeta peptide; rat cerebrospinal fluid, read-out: percent reduction of abeta peptide in the cerebrospinal fluid of the rat): 10 to 80%; IC50 [1, 6]: 0.03 µM; IC50 [2, 7]: 0.035 µM"
CO[C@H](C)C(=O)N[C@@H](Cc1cc(F)cc(-c2nccs2)c1)[C@H](O)CN[C@H]1CC2(CCC2)Oc2c1cc(CC(C)C)nc2Cl [compound 752],137,100,166,,,,"IC50 (CYP2D6; [8]): 1.3 µM; IC50 [1, 9]: 0.009 µM; IC50 [2, 10]: 0.067 µM"
CN1CCO[C@H](C(=O)N[C@@H](Cc2ccc(F)cc2)[C@H](O)CN[C@H]2CC3(CCC3)Oc3ncc(CC(C)(C)C)cc32)C1 [compound 744],266,900,333,,,,"IC50 (CYP2D6; [8]): 11.2 µM; IC50 [1, 9]: 0.372 µM; IC50 [2, 10]: 0.075 µM"
CO[C@H](C)C(=O)N[C@@H](Cc1ccc(O)c(O)c1)[C@H](O)CN[C@H]1CC2(CCC2)Oc2ncc(CC(C)(C)C)cc21 [compound 651],147,1600,171,,,,"IC50 (CYP2D6; 2D6 IC50, CYP2D6 inhibition): 10.8 µM; IC50 [1, 6]: 0.008 µM; IC50 [2, 7]: 0.012 µM"
"COCC(=O)N[C@@H](Cc1ccc(-c2nccs2)cc1)[C@H](O)CN[C@H]1CC2(CCC2)Oc2ncc(CC(C)C)cc21 [Example 434, N-((2S,3R)-3-hydroxy-4-((S)-6-isobutyl-2,2-spirocyclobutyl-3,4-dihydro-2H-pyrano[2,3-b]pyridin-4-ylamino)-1-(4-(thiazol-2-yl)phenyl)butan-2-yl)-2-methoxyacetamide]",,200,,60,1.3,80,"IC50 [1, 12]: 0.075 µM; IC50 [2, 13]: 0.273 µM"
COCC(=O)N[C@@H](Cc1ccc2c(c1)OCO2)[C@H](O)CN[C@H]1CC2(CCC2)Oc2ncc(CCC(F)(F)F)cc21 [compound 445],,200,,121,,24,"IC50 (CYP2D6; [14]): 4.1 µM; IC50 ([1]; Table 2, read-out: BACE1 FRET assay): 0.754 µM; IC50 ([2]; HEK293, Table 2, HEK cells, read-out: HEK cell assay): 0.621 µM"
COCC(=O)N[C@@H](Cc1cc(F)cc(F)c1)[C@H](O)CN[C@H]1CC2(CCC2)Oc2c(-c3ccncc3)cc(CC(C)C)cc21 [compound 586],65,100,31,,,,"IC50 (CYP2D6; 2D6 IC50, CYP2D6 inhibition): 1.3 µM; IC50 [1, 6]: 0.009 µM; IC50 [2, 7]: 0.006 µM"
CO[C@H](C)C(=O)N[C@@H](Cc1cccc(F)c1)[C@H](O)CN[C@@H]1CC2(CCC2)Oc2c1cc(CC(C)(C)C)nc2-n1ccnc1 [compound 501],,100,,175,2.8,86,"IC50 [1, 15]: 5.3 µM; IC50 [2, 16]: > 10 µM"
CO[C@H](C)C(=O)N[C@@H](Cc1cc(F)cc(F)c1)[C@H](O)CN[C@H]1CC2(CCC2)Oc2c1cc(CC(C)C)nc2-c1nccn1C [compound 704],44,≤ 30,20,,,,"IC50 (CYP2D6; [8]): ≥ 27 µM; IC50 [1, 9]: 0.03 µM; IC50 [2, 10]: 0.024 µM"
COCC(=O)N[C@@H](Cc1ccc(F)cc1)[C@H](O)CN[C@H]1CC2(CCC2)Oc2c(-c3ccncc3)cc(CC(C)(C)C)cc21 [compound 562],,100,,60,3.6,24,"IC50 [1, 15]: 0.027 µM; IC50 [2, 16]: 0.021 µM"
COCC(=O)N[C@@H](Cc1cc(F)cc(F)c1)[C@H](O)CN[C@@H]1CC2(CCC2)Oc2c1cc(CC(C)(C)C)nc2-c1cnc[nH]1 [compound 509],,100,,70,2.3,74,"IC50 [1, 15]: 0.487 µM; IC50 [2, 16]: 0.077 µM"
CC(=O)N[C@@H](Cc1cccc(F)c1)[C@H](O)CN[C@H]1CC2(CCC2)Oc2c(-c3ccncc3)cc(Cl)cc21 [compound 595],736,100,147,,,,"IC50 (CYP2D6; 2D6 IC50, CYP2D6 inhibition): 0.5 µM; IC50 [1, 6]: 0.077 µM; IC50 [2, 7]: 0.051 µM"
"CCOCC(=O)N[C@@H](Cc1ccc2c(c1)OCO2)[C@H](O)CN[C@H]1CC2(CCC2)Oc2ncc(CC(C)(C)C)cc21 [Example 772, N-((1S,2R)-1-(1,3-benzodioxol-5-ylmethyl)-3-(((4′S)-6′-(2,2-dimethylpropyl)-3′,4′-dihydrospiro[cyclobutane-1,2′-pyrano[2,3-b]pyridin]-4′-yl)amino)-2-hydroxypropyl)-2-ethoxyacetamide]",,200,,112,1.1,28,"IC50 [1, 12]: 0.021 µM; IC50 [2, 13]: 0.042 µM"
CO[C@H](C)C(=O)N[C@@H](Cc1ccc2c(c1)OCO2)[C@H](O)CN[C@@H]1c2cc(CC(C)(C)C)cnc2OC2(CCC2)[C@H]1F [compound 539],,100,,161,6.5,61,"IC50 [1, 15]: 4.77 µM; IC50 [2, 16]: 0.147 µM"
CC(=O)N[C@@H](Cc1cccc(-c2ccncc2)c1)[C@H](O)CN[C@H]1CC2(CCC2)Oc2ccc(CC(C)(C)C)cc21 [compound 618],344,160,413,,,,"IC50 (CYP2D6; 2D6 IC50, CYP2D6 inhibition): 0.3 µM; IC50 [1, 6]: 0.031 µM; IC50 [2, 7]: 0.038 µM"
Cc1nc(CN2CCO[C@H](C(=O)N[C@@H](Cc3ccc(F)cc3)[C@H](O)CN[C@H]3CC4(CCC4)Oc4ncc(CC(C)(C)C)cc43)C2)cs1 [compound 762],,300,,522,2.6,297,"IC50 [1, 12]: 0.037 µM; IC50 [2, 13]: 0.037 µM"
COCC(=O)N[C@@H](Cc1ccc2c(c1)OCO2)[C@H](O)CN[C@H]1CC2(CCC2)Oc2c1cc(CC(C)C)nc2-c1ccncc1 [compound 669],77,≤ 30,45,,,,"IC50 (CYP2D6; [8]): 0.3 µM; IC50 [1, 9]: 0.034 µM; IC50 [2, 10]: 0.087 µM"
CC(=O)N[C@@H](Cc1cccc(-c2cccnc2)c1)[C@H](O)CN[C@H]1CC2(CCC2)Oc2ncc(CC(C)(C)C)cc21 [compound 623],601,160,829,,,,"IC50 (CYP2D6; 2D6 IC50, CYP2D6 inhibition): 1.3 µM; IC50 [1, 6]: 0.008 µM; IC50 [2, 7]: 0.006 µM"
CC(C)(C)Cc1cnc2c(c1)[C@@H](NC[C@@H](O)[C@H](Cc1ccc(F)cc1)NC(=O)[C@@H]1CN(Cc3ccccc3)CCO1)CC1(CCC1)O2 [compound 711],399,300,706,,,,"IC50 (CYP2D6; [8]): 8.2 µM; IC50 [1, 9]: 0.04 µM; IC50 [2, 10]: 0.124 µM"
CC(=O)N[C@@H](Cc1ccc(-c2cncs2)cc1)[C@H](O)CN[C@H]1CC2(CCC2)Oc2ncc(CC(C)(C)C)cc21 [compound 694],66,200,82,,,,"IC50 (CYP2D6; [8]): 0.3 µM; IC50 [1, 9]: 0.074 µM; IC50 [2, 10]: 0.071 µM"
COCC(=O)N[C@@H](Cc1cccc(-c2nccs2)c1)[C@H](O)CN[C@H]1CC2(CCC2)Oc2ncc(C3CCCC3)cc21 [compound 886],,200,,64,,55,"IC50 (CYP2D6; [14]): 0.3 µM; IC50 [1, 12]: 0.143 µM; IC50 ([2]; HEK293, cell-based assay, HEK cells, IC50's in uM, read-out: HEK cell assay): 0.136 µM"
CC[C@H](OC)C(=O)N[C@@H](Cc1ccc(F)cc1)[C@H](O)CN[C@H]1CC2(CCC2)Oc2ncc(CC(C)(C)C)cc21 [compound 572],,200,,569,8.1,290,"IC50 [1, 15]: 0.102 µM; IC50 [2, 16]: 0.094 µM"
CO[C@H](C)C(=O)N[C@@H](Cc1ccncc1)[C@H](O)CN[C@H]1CC2(CCC2)Oc2ncc(C(F)(F)F)cc21 [compound 653],114,600,178,,,,"IC50 (CYP2D6; 2D6 IC50, CYP2D6 inhibition): 5.8 µM; IC50 [1, 6]: 6.74 µM; IC50 [2, 7]: > 10 µM"
